Measurements taken from the NIST ThermoML archive (doi:10.1016/j.jct.2018.10.015).

Assay: xn = mol fraction of the nth substance listed
Conditions: 101.3 kPa, Liquid; for viscosity: Concentric cylinders viscometry; for mass density: Vibrating tube method

CCn1cc[n+](C)c1C.O=S(=O)([N-]S(=O)(=O)C(F)(F)F)C(F)(F)F + COC(=O)OC
Conditions | mass density [kg/m3] | viscosity [mPa·s]
293.15 K, x1 = 0.099 | 1189 | 1.706
293.15 K, x1 = 0.1994 | 1269.4 | 3.137
293.15 K, x1 = 0.298 | 1325 | 5.492
293.15 K, x1 = 0.4006 | 1368.1 | 9.266
293.15 K, x1 = 0.5003 | 1400.9 | 14.65
293.15 K, x1 = 0.5738 | 1420.8 | 20.1
293.15 K, x1 = 0.6927 | 1447.3 | 31.98
293.15 K, x1 = 0.8138 | 1469.2 | 49.28
293.15 K, x1 = 0.8951 | 1481.5 | 64.02
293.15 K, x1 = 1 | 1495.8 | 89.88
298.15 K, x1 = 0.099 | 1183 | 1.581
298.15 K, x1 = 0.1994 | 1263.8 | 2.849
298.15 K, x1 = 0.298 | 1319.6 | 4.9
298.15 K, x1 = 0.4006 | 1362.9 | 8.114
298.15 K, x1 = 0.5003 | 1395.7 | 12.58
298.15 K, x1 = 0.5738 | 1415.7 | 17.03
298.15 K, x1 = 0.6927 | 1442.3 | 26.57
298.15 K, x1 = 0.8138 | 1464.3 | 40.16
298.15 K, x1 = 0.8951 | 1476.7 | 51.6
298.15 K, x1 = 1 | 1491 | 71.34
303.15 K, x1 = 0.099 | 1177 | 1.469
303.15 K, x1 = 0.1994 | 1258.1 | 2.6
303.15 K, x1 = 0.298 | 1314.2 | 4.402
303.15 K, x1 = 0.4006 | 1357.7 | 7.169
303.15 K, x1 = 0.5003 | 1390.6 | 10.91
303.15 K, x1 = 0.5738 | 1410.6 | 14.6
303.15 K, x1 = 0.6927 | 1437.4 | 22.36
303.15 K, x1 = 0.8138 | 1459.4 | 33.22
303.15 K, x1 = 0.8951 | 1471.8 | 42.25
303.15 K, x1 = 1 | 1486.3 | 57.64
308.15 K, x1 = 0.099 | 1171 | 1.368
308.15 K, x1 = 0.1994 | 1252.4 | 2.383
308.15 K, x1 = 0.298 | 1308.8 | 3.98
308.15 K, x1 = 0.4006 | 1352.5 | 6.384
308.15 K, x1 = 0.5003 | 1385.5 | 9.555
308.15 K, x1 = 0.5738 | 1405.6 | 12.64
308.15 K, x1 = 0.6927 | 1432.4 | 19.05
308.15 K, x1 = 0.8138 | 1454.5 | 27.85
308.15 K, x1 = 0.8951 | 1467 | 35.08
308.15 K, x1 = 1 | 1481.5 | 47.26
313.15 K, x1 = 0.099 | 1164.8 | 1.276
313.15 K, x1 = 0.1994 | 1246.8 | 2.192
313.15 K, x1 = 0.298 | 1303.4 | 3.619
313.15 K, x1 = 0.4006 | 1347.3 | 5.728
313.15 K, x1 = 0.5003 | 1380.4 | 8.44
313.15 K, x1 = 0.5738 | 1400.5 | 11.05
313.15 K, x1 = 0.6927 | 1427.5 | 16.38
313.15 K, x1 = 0.8138 | 1449.7 | 23.62
313.15 K, x1 = 0.8951 | 1462.2 | 29.48
313.15 K, x1 = 1 | 1476.7 | 39.24
318.15 K, x1 = 0.099 | 1158.7 | 1.193
318.15 K, x1 = 0.1994 | 1241.2 | 2.023
318.15 K, x1 = 0.298 | 1298 | 3.308
318.15 K, x1 = 0.4006 | 1342.1 | 5.173
318.15 K, x1 = 0.5003 | 1375.3 | 7.511
318.15 K, x1 = 0.5738 | 1395.5 | 9.74
318.15 K, x1 = 0.6927 | 1422.6 | 14.24
318.15 K, x1 = 0.8138 | 1444.8 | 20.25
318.15 K, x1 = 0.8951 | 1457.4 | 25.06
318.15 K, x1 = 1 | 1472 | 33
323.15 K, x1 = 0.099 | 1152.5 | 1.114
323.15 K, x1 = 0.1994 | 1235.5 | 1.87
323.15 K, x1 = 0.298 | 1292.7 | 3.037
323.15 K, x1 = 0.4006 | 1336.9 | 4.699
323.15 K, x1 = 0.5003 | 1370.2 | 6.73
323.15 K, x1 = 0.5738 | 1390.5 | 8.649
323.15 K, x1 = 0.6927 | 1417.6 | 12.48
323.15 K, x1 = 0.8138 | 1440 | 17.52
323.15 K, x1 = 0.8951 | 1452.6 | 21.53
323.15 K, x1 = 1 | 1467.2 | 28.05
328.15 K, x1 = 0.099 | 1146.3 | 1.042
328.15 K, x1 = 0.1994 | 1230 | 1.737
328.15 K, x1 = 0.298 | 1287.3 | 2.802
328.15 K, x1 = 0.4006 | 1331.7 | 4.286
328.15 K, x1 = 0.5003 | 1365.2 | 6.083
328.15 K, x1 = 0.5738 | 1385.5 | 7.757
328.15 K, x1 = 0.6927 | 1412.7 | 11.06
328.15 K, x1 = 0.8138 | 1435.1 | 15.34
328.15 K, x1 = 0.8951 | 1447.8 | 18.72
328.15 K, x1 = 1 | 1462.4 | 24.16
